Data taken from patent publication EP0932388B1, “DOSAGE FORM AND METHOD FOR ADM[…]” (ALZA CORPORATION, priority 1996, dated 1998).

Tested on: school children
Experiment: clinical study of methylphenidate release profiles (SKAMP and CLAM ratings, mathematics test, activity monitor)
Assay type: in vivo
Conditions: oral
Description: The CLAM Test is a behavior rating that indicates social conformity or rebellion as developed by Conners, Lonez, and Milch and SKAMP is a rating that also measures behavior as developed by Swanson and reported in Psychopharmacological Bulletin, Vol. 21, pp. 887-890 (1985).
The effect measurements in this study were: (1) observer ratings on SKAMP scale (during classroom time) and (2) performance on the computerized mathematics test. Each child was tested on the mathematics test before the study began, and based on this pre-test during the study, a mathematics test appropriate for each child's ability was given. The morning and evening parent CLAM assessments were used to identify unusual behaviors. The evening parent CLAM was used to determine the presence of treatment effects in the evening hours, particularly treatment effects on the time the child fell asleep, and whether the child's sleep was interrupted. All of the children also wore an activity monitor (Actigraph) which records the movements of the child throughout the day. The activity (number of movements per minute) is recorded electronically and modeled as a function of the drug effect.
The immediate release tablet and the sustained-release dosage form were compared to a sustained-release dosage form that administered methylphenidate in an ascending profile. The sustained-release ascending profile corresponds to administering 4.2 mg at zero hour, 1.1 mg at 1.5 hours, 1.1 mg at 2 hours, 1.2 mg at 2.5 hours, 1.2 mg at 3.0 hours, 1.3 mg at 3.5 hours, 1.3 mg at 4 hours, 1.5 mg at 4.5 hours, 1.5 mg at 5 hours, 1.8 mg at 5.5 hours, 1.8 mg at 6 hours, and 2.0 mg at 6.5 hours, to produce the sustained-ascending release dotted line profile seen in Figure 2.
The accompanying figures present the results of the above-described study. […]

COC(=O)C(c1ccccc1)C1CCCCN1 (stereo not drawn) [methylphenidate]
therapeutic effect and tolerance (controlled-sustained ascending profile of methylphenidate): desired therapeutic effect without tolerance | acute tolerance (sustained-nonascending dose of methylphenidate (20 mg program)): development of acute tolerance | behavior, activity and mathematical scores (sustained-nonascending dose of methylphenidate (20 mg program), versus placebo): a decrease in activity, higher mathematical scores and a lessening of inappropriate behavior
